The values below come from PubChem BioAssay (NCI).

The structures appear in SMILES notation.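 48-hour exposure; five concentrations; linearly interpolated endpoints. At the TGI there is no net growth.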 Some results are limits rather than exact numbers.

Among the test systems are NCI-H522 lung; SF-539 CNS; SN12C renal; MOLT-4 leukemia; ACHN renal; UO-31 renal; NCI/ADR-RES ovarian; RXF 393 renal; A498 renal; HOP-62 NSCLC; T-47D breast; UACC-257 melanoma; BT-549 breast; OVCAR-5 ovarian; M14 melanoma; HL-60(TB) leukemia; MALME-3M melanoma; A549 NSCLC; CCRF-CEM leukemia; EKVX NSCLC.
Holding throughout (assay): NCI tumour cell line growth inhibition, 48 h

With `C=C1[C@H](OCC(C)C)[C@@H](OCC(C)C)[C@@H](O)C(C)(C)/C=C/[C@H](C)C(=O)[C@@]2(O)C[C@H](C)[C@H](O)[C@@H]2[C@H]1OCC(C)C`, the TGI in the experiment with NCI-H522 lung, in the experiment on SF-539 CNS, in the experiment on SN12C renal, in the experiment on MOLT-4 leukemia, in the experiment with ACHN renal and in the experiment on UO-31 renal was over 7.5 µM in each case. The TGI with NCI/ADR-RES ovarian, with RXF 393 renal, in the experiment on A498 renal, with HOP-62 NSCLC, with T-47D breast and with UACC-257 melanoma was over 7.5 µM in each case. For the same molecule, the TGI with BT-549 breast, in the experiment with OVCAR-5 ovarian and in the experiment with M14 melanoma was over 7.5 µM in each case.
As to `COC(=O)CC1CN(C(=O)OCc2ccccc2)C(C)(C)O1` (stereo not given), the TGI in the experiment on NCI-H522 lung, in the experiment with SF-539 CNS, in the experiment on HL-60(TB) leukemia, in the experiment on SN12C renal, with MOLT-4 leukemia and in the experiment on ACHN renal was over 100 µM in each case. Further, the TGI in the experiment with MALME-3M melanoma, with UO-31 renal, in the experiment with NCI/ADR-RES ovarian, in the experiment with RXF 393 renal, in the experiment on A498 renal and in the experiment with A549 NSCLC was over 100 µM in each case. Further, the TGI in the experiment on CCRF-CEM leukemia was over 100 µM; in the experiment on UACC-257 melanoma, over 100 µM; in the experiment with BT-549 breast, 66.9 µM; with EKVX NSCLC it was over 100 µM; in the experiment with OVCAR-5 ovarian, over 100 µM; with M14 melanoma, over 100 µM.
For the molecule `CC(C)[Si](OCC/C=C/C1CCC(=O)C1C(O)C1CCCCC1)(C(C)C)C(C)C` (stereo not given), the TGI is 25.3 µM in the experiment on NCI-H522 lung; 40.6 µM in the experiment with SF-539 CNS; 34.4 µM with SN12C renal; 30 µM with MOLT-4 leukemia; 27.9 µM in the experiment on ACHN renal; 29.1 µM with MALME-3M melanoma. The TGI in the experiment with UO-31 renal was found to be 30.2 µM; in the experiment on NCI/ADR-RES ovarian it was 27.6 µM; with RXF 393 renal, 26.4 µM; with A498 renal, 33.9 µM; in the experiment on A549 NSCLC it was 28.7 µM; with HOP-62 NSCLC, 31.3 µM. Moreover, the TGI in the experiment on CCRF-CEM leukemia worked out at 44.6 µM; in the experiment on T-47D breast it was 33.7 µM; with UACC-257 melanoma, 29.5 µM; in the experiment on BT-549 breast, 34.1 µM; with EKVX NSCLC it was 28.9 µM; with OVCAR-5 ovarian it was 33.4 µM. Further, in the experiment with M14 melanoma, the TGI worked out at 37.8 µM.
Turning to `CC(C)CC(=O)OC[n+]1cccc(-c2c(COC(=O)NC(C)C)c(COC(=O)NC(C)C)c3n2CCC3)c1`, the TGI with NCI-H522 lung is 49.2 µM; with SF-539 CNS it was over 100 µM; in the experiment with SN12C renal, over 100 µM; in the experiment on MOLT-4 leukemia, over 100 µM; in the experiment with ACHN renal, over 100 µM; in the experiment with MALME-3M melanoma it was over 100 µM. Further, the TGI with UO-31 renal is 91.6 µM; in the experiment with NCI/ADR-RES ovarian, over 100 µM; with RXF 393 renal, over 100 µM; with A498 renal, 59 µM; in the experiment with A549 NSCLC it was over 100 µM; in the experiment with HOP-62 NSCLC, over 100 µM. For the same molecule, the TGI in the experiment with CCRF-CEM leukemia, in the experiment on T-47D breast, in the experiment with UACC-257 melanoma, in the experiment on BT-549 breast, in the experiment with EKVX NSCLC and in the experiment with OVCAR-5 ovarian was over 100 µM each time. This molecule registered a TGI in the experiment with M14 melanoma of over 100 µM.
Turning to `Clc1cccc(Cl)c1C1SCc2nc3cc4ccccc4cc3n21` (stereo not given), the TGI in the experiment with SN12C renal, in the experiment with MOLT-4 leukemia, in the experiment with ACHN renal, in the experiment with MALME-3M melanoma, in the experiment on UO-31 renal and with NCI/ADR-RES ovarian was over 100 µM in each case. The TGI in the experiment with RXF 393 renal, in the experiment on A549 NSCLC, with HOP-62 NSCLC, in the experiment with CCRF-CEM leukemia, with T-47D breast and with UACC-257 melanoma was over 100 µM in each case. Besides, the TGI in the experiment with BT-549 breast, in the experiment with EKVX NSCLC, in the experiment with OVCAR-5 ovarian and with M14 melanoma was over 100 µM each time.
Regarding `Cc1ccc(-c2cnc(NC3OC(COC(=O)c4ccccc4)C(OC(=O)c4ccccc4)C(OC(=O)c4ccccc4)C3OC(=O)c3ccccc3)s2)cc1` (stereo not given), the TGI in the experiment with NCI-H522 lung, with SN12C renal, in the experiment on MOLT-4 leukemia, in the experiment with ACHN renal, in the experiment with MALME-3M melanoma and in the experiment with UO-31 renal was over 100 µM in each case. Moreover, the TGI with NCI/ADR-RES ovarian, with RXF 393 renal, in the experiment on A549 NSCLC, in the experiment on HOP-62 NSCLC, in the experiment on T-47D breast and in the experiment with UACC-257 melanoma was over 100 µM in each case. For the same molecule, the TGI in the experiment with BT-549 breast, in the experiment on EKVX NSCLC, in the experiment on OVCAR-5 ovarian and in the experiment on M14 melanoma was over 100 µM each time.
In the case of `COCC1OCCN1C` (stereo not given), the TGI in the experiment with NCI-H522 lung, with SF-539 CNS, in the experiment with MOLT-4 leukemia, in the experiment on ACHN renal, in the experiment on MALME-3M melanoma and with UO-31 renal was over 100 µM throughout. Moreover, the TGI in the experiment on NCI/ADR-RES ovarian, in the experiment with RXF 393 renal, with A498 renal, in the experiment on A549 NSCLC, with HOP-62 NSCLC and in the experiment with CCRF-CEM leukemia was over 100 µM throughout. For the same molecule, the TGI with T-47D breast, in the experiment with UACC-257 melanoma, in the experiment with BT-549 breast, with EKVX NSCLC, with OVCAR-5 ovarian and in the experiment with M14 melanoma was over 100 µM each time.
Turning to `C=C(CO)[C@H]1CC/C(C)=C/CC/C(C)=C/C/C=C(\C)[C@H](O)C1`, the TGI in the experiment with NCI-H522 lung was found to be 32.1 µM; in the experiment with SF-539 CNS, 40.8 µM; with SN12C renal it was 81.7 µM; in the experiment on MOLT-4 leukemia, 44.2 µM; with ACHN renal, 69.7 µM; with UO-31 renal, 93 µM. In addition, the TGI was 90.3 µM in the experiment with NCI/ADR-RES ovarian; 42.1 µM in the experiment on RXF 393 renal; over 100 µM in the experiment with A549 NSCLC; over 100 µM in the experiment with HOP-62 NSCLC; over 100 µM in the experiment on CCRF-CEM leukemia; over 100 µM in the experiment on T-47D breast. Moreover, the TGI in the experiment with UACC-257 melanoma is 39.7 µM; in the experiment with BT-549 breast, 44.2 µM; in the experiment with EKVX NSCLC, over 100 µM; in the experiment with OVCAR-5 ovarian, over 100 µM.
Consider `O=C(O)c1ccccc1C(=O)OCC1CCCN2CCCCC12` (stereo not given), for which the TGI in the experiment on SF-539 CNS, in the experiment with SN12C renal, with MOLT-4 leukemia, in the experiment with ACHN renal, with MALME-3M melanoma and in the experiment with UO-31 renal was over 100 µM each time. For the same molecule, the TGI in the experiment on NCI/ADR-RES ovarian, with RXF 393 renal, in the experiment on A498 renal, in the experiment on A549 NSCLC, in the experiment with HOP-62 NSCLC and in the experiment with CCRF-CEM leukemia was over 100 µM throughout. Besides, the TGI with T-47D breast, in the experiment with UACC-257 melanoma, with BT-549 breast, with EKVX NSCLC, with OVCAR-5 ovarian and with M14 melanoma was over 100 µM in each case.
`CC/C(=C/OC)P1(=O)OC(C)(C)CN1C(C)(C)C` (stereo not given): the TGI in the experiment with SF-539 CNS, with ACHN renal, with MALME-3M melanoma, with UO-31 renal, with NCI/ADR-RES ovarian and with A498 renal was over 100 µM in each case. Moreover, the TGI in the experiment on A549 NSCLC, in the experiment with HOP-62 NSCLC, with T-47D breast, with UACC-257 melanoma, in the experiment with BT-549 breast and with EKVX NSCLC was over 100 µM throughout. The TGI in the experiment on OVCAR-5 ovarian and in the experiment with M14 melanoma was over 100 µM each time.
Consider `CCOC(=O)c1c(-c2ccc(Cl)cc2)c(C#N)c(=S)n(C2OC(CO)C(O)C(O)C2O)c1-c1ccccc1` (stereo not given), for which the TGI in the experiment on SF-539 CNS was 35 µM; in the experiment with SN12C renal it was over 100 µM; with MOLT-4 leukemia it was 46.7 µM; in the experiment with ACHN renal, over 100 µM; in the experiment with MALME-3M melanoma, over 100 µM; with UO-31 renal it was over 100 µM. Also, the TGI with NCI/ADR-RES ovarian is over 100 µM; with RXF 393 renal, 47.1 µM; in the experiment with A549 NSCLC it was over 100 µM; with HOP-62 NSCLC, 36 µM; with CCRF-CEM leukemia it was 53.9 µM; in the experiment on T-47D breast it was 54.4 µM. Besides, the TGI with UACC-257 melanoma was determined as 62.9 µM; with BT-549 breast it was 61.3 µM; in the experiment with OVCAR-5 ovarian, 40.8 µM; with M14 melanoma it was 37.6 µM.
For the molecule `CC(C)CC(NC(=O)OCc1ccccc1)C(=O)NCCCCC(N)C(=O)NC(CCCCNC(=O)C(CC(C)C)NC(=O)OCc1ccccc1)C(=O)NC(CCCCNC(=O)C(CC(C)C)NC(=O)OCc1ccccc1)C(=O)NC(CCCCNC(=O)C(CC(C)C)NC(=O)OCc1ccccc1)C(=O)NC(CCCCNC(=O)C(CC(C)C)NC(=O)OCc1ccccc1)C(=O)NC(CCCCNC(=O)C(CC(C)C)NC(=O)OCc1ccccc1)C(=O)O` (stereo not given), the TGI in the experiment with NCI-H522 lung, with HL-60(TB) leukemia, with SN12C renal, with MOLT-4 leukemia, in the experiment with ACHN renal and with MALME-3M melanoma was over 100 µM each time. Besides, the TGI in the experiment with UO-31 renal, in the experiment with A498 renal, in the experiment on A549 NSCLC, in the experiment with HOP-62 NSCLC, with CCRF-CEM leukemia and in the experiment on T-47D breast was over 100 µM throughout. Moreover, the TGI with UACC-257 melanoma, with BT-549 breast and with OVCAR-5 ovarian was over 100 µM each time.
